Measured values: US20090298878A1, “OXIME COMPOUNDS AND THE USE THEREOF” (priority 2006, published 2009)
Counter-ions that a name gives are not always drawn.

Target: T1, N-type calcium channel (NTCC) (Homo sapiens, UniProt Q00975)
T1 construct: host or cells: IMR32 cells differentiated with dibutyryl cAMP and bromodeoxyuridine
Experiment: FLIPR calcium mobilization assay for N-type calcium channel (differentiated IMR32 cells)
Assay type: cell-based
Conditions: about 1.0 μM or less; calcium mobilization and/or electrophysiological assay
Procedure: Cell maintenance and differentiation. Unless noted otherwise, cell culture reagents were purchased from Mediatech of Hemdon, Md. IMR32 cells (American Type Culture Collection, ATCC, Manassas, Va.) were routinely cultured in growth medium consisting of minimum essential medium containing 10% fetal bovine serum (FBS, Hyclone, Logan, Utah), 100 U/mL penicillin, 100 μg/mL streptomycin, 2 mM L-glutamine, 1 mM sodium pyruvate, and 1× MEM non-essential amino acids. 80-90% confluent flasks of cells were differentiated using the following differentiation medium: Growth medium plus 1 mM dibutyryl cyclic AMP (Sigma, St. Louis, Mo.), and 2.5 μM bromodeoxyuridine (Sigma). Cells were differentiated for 8 days by replacing differentiation medium every 2-3 days.
FLIPR Calcium Mobilization Assay for N-type Calcium Channel. One day prior to performing this assay, differentiated IMR32 cells were treated with 1× CellStripper, and seeded on poly-D-lysine-coated 96-well clear-bottom black plates (Becton Dickinson, Franklin Lakes, N.J.) at 200,000 cells/well. On the day of the assay, the cell plates were washed with IMR32 buffer (127 mM NaCl, 1 mM KCl, 2 mM MgCl2, 700 μM NaH2PO4, 5 mM CaCl2, 5 mM NaHCO3, 8 mM HEPES, 10 mM glucose, pH 7.4), then pre-stimulated with KCl and loaded as follows: 0.05 mL of IMR32 buffer, 0.05 mL of each compound tested diluted in IMR32 buffer containing 20 μM nitrendipine (Sigma), and 0.1 mL KCl dissolved in IMR32 buffer, plus Fluo-4 were added (3 μM final concentration, Molecular Probes, Eugene, Oreg.). Final test compound concentrations ranged from about 846 pM to about 17 μM, final nitrendipine concentration was 5 μM, and final KCl concentration was 90 mM. After 1 hour, the cells were washed twice with 0.05 mL of each compound tested in nitrendipine-containing IMR32 buffer (no KCl or Fluo-4), and then replaced with 0.1 mL of each compound tested in nitrendipine-containing IMR32 buffer. Plates were then transferred to a Fluorimetric imaging Plate Reader (FLIPR^96, Molecular Devices, Inc., Sunnyvale, Calif.) for assay. The FLIPR measured basal Fluo-4 fluorescence for 315 seconds (i.e., 5 minutes and 15 seconds), then added 0.1 mL KCl agonist dissolved in IMR32 buffer and measured fluorescence for another 45 seconds. Final test compound concentrations on the cells after FLIPR read ranged from about 846 pM to about 17 μM, final nitrendipine concentration was 5 μM, and final KCl concentration was 90 mM. Data were collected over the entire time course and analyzed using Excel, Graph Pad Prism (version 3.02, Graph Pad, San Diego, Calif.), or an in-house non-linear regression analysis software.

T1 sequence (Q00975 whole entry): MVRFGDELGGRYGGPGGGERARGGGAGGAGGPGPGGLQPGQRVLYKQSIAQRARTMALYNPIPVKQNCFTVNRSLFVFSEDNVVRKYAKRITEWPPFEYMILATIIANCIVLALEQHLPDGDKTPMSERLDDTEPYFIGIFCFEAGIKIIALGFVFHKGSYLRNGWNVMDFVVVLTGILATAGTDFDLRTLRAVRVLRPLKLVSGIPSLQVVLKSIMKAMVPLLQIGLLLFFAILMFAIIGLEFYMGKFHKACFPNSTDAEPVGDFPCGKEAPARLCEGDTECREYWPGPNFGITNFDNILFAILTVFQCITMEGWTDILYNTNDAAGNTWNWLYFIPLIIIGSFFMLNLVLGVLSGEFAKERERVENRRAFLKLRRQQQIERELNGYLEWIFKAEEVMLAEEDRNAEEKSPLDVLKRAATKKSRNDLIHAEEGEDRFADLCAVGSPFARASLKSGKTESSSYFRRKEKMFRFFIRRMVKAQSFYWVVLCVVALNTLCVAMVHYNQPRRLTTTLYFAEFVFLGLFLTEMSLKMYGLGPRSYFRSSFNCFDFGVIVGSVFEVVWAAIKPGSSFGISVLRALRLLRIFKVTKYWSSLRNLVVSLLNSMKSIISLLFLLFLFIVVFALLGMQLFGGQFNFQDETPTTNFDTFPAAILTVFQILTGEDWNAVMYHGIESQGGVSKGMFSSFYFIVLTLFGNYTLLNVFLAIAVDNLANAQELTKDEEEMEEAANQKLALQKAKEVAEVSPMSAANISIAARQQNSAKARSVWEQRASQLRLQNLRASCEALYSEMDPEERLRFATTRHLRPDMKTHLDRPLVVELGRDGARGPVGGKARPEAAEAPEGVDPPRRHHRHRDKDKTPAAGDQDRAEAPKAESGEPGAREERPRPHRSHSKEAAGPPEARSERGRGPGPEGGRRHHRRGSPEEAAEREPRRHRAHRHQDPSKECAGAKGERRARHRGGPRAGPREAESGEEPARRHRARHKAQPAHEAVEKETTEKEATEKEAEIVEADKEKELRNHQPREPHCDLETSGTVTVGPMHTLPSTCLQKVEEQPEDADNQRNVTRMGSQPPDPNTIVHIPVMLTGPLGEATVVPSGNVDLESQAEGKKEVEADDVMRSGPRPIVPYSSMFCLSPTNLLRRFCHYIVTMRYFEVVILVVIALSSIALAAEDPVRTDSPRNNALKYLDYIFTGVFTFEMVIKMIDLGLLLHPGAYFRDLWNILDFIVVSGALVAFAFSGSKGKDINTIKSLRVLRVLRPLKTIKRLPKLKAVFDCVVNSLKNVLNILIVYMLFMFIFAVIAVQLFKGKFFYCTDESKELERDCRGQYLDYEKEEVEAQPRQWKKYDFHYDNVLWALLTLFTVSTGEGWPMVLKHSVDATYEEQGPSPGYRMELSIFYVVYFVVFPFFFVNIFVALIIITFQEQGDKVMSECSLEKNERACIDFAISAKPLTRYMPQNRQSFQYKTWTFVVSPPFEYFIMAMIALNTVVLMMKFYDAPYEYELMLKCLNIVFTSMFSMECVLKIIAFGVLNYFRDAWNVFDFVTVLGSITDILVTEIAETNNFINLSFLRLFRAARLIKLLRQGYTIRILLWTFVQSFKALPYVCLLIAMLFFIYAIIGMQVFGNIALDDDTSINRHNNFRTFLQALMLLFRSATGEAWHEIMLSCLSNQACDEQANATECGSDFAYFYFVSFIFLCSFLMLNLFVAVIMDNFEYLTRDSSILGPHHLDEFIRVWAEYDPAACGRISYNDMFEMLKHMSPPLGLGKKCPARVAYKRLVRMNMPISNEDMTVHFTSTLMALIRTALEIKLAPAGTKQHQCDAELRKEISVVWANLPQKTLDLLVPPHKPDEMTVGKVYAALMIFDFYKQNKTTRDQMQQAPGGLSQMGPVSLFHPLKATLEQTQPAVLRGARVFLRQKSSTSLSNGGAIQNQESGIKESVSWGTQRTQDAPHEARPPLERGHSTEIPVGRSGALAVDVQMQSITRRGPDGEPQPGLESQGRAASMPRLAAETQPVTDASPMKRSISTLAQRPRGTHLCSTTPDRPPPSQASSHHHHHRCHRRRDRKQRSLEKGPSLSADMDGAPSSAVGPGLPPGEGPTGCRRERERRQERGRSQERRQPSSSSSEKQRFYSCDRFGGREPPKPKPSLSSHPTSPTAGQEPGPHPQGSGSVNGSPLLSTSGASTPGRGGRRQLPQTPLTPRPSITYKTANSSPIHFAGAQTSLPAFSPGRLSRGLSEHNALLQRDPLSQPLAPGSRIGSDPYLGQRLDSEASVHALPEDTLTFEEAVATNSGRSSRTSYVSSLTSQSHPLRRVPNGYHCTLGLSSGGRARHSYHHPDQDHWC

IC50, ≤ 1 µM:
O=S(=O)(c1ccc(F)c(F)c1)N1CCC(=NOC(c2ccc(F)cc2)c2ccc(F)cc2)CC1 [Example 243, 1-(3,4-Difluorophenylsulfonyl)piperidin-4-one O-bis(4-fluorophenyl)methyl oxime]
CCCCc1ccc(S(=O)(=O)N2CCC(=NOCc3cc(Cl)ccn3)CC2)cc1 [Example 73, 1-(4-Butylbenzenesulfonyl)piperidin-4-one O-(4-chloropyridin-2-ylmethyl)oxime]
O=S(=O)(c1cc(F)cc(F)c1)N1CCC(=NOC(c2ccc(F)cc2)c2ccc(F)cc2)CC1 [Example 244, 1-(3,5-Difluorophenylsulfonyl)piperidin-4-one O-bis(4-fluorophenyl)methyl oxime]
N#Cc1cccc(C(ON=C2CCN(S(=O)(=O)c3ccc(C#N)nc3)CC2)C2CC2)c1 (stereo not shown) [Example 278, 5-(4-((3-Cyanophenyl)(cyclopropyl)methoxyimino)piperidin-1-ylsulfonyl)picolinonitrile]
Nc1ccccc1S(=O)(=O)N1CCC(=NOCc2cccc(C(F)(F)F)c2)CC1 [Example 85, 1-(2-Aminobenzenesulfonyl)piperidin-4-one O-(3-trifluoromethylbenzyl)oxime]
N#Cc1cccc(CON=C2CCN(S(=O)(=O)c3ccc(OC(F)(F)F)cc3)CC2)c1 [Example 121, 3-[1-(4-Trifluoromethoxybenzenesulfonyl)piperidin-4-ylideneaminooxymethyl]benzonitrile]
O=S(=O)(c1ccc(OC(F)(F)F)cc1)N1CCC(=NOCc2cccc(C(F)(F)F)c2)CC1 [Example 58, 1-(4-Trifluoromethoxybenzenesulfonyl)piperidin-4-one O-(3-trifluoromethylbenzyl)oxime]
N#Cc1cccc(CON=C2CCN(S(=O)(=O)c3ccc(F)cc3)CC2)c1 [Example 196]
COc1ccccc1S(=O)(=O)N1CCC(=NOC(c2ccc(F)cc2)c2ccc(F)cc2)CC1 [Example 238, 1-(2-Methoxyphenylsulfonyl)piperidin-4-one O-bis(4-fluorophenyl)methyl oxime]
O=S(=O)(c1cccc(OC(F)(F)F)c1)N1CCC(=NOCc2cccc(C(F)(F)F)c2)CC1 [Example 59, 1-(3-Trifluoromethoxybenzenesulfonyl)piperidin-4-one O-(3-trifluoromethylbenzyl)oxime]
O=C(CN1CCC(=NOCc2cccc(C(F)(F)F)c2)CC1)NCc1cc(C(F)(F)F)cc(C(F)(F)F)c1 [Example 329, N-(3,5-Bis(trifluoromethyl)benzyl)-2-(4-(3-(trifluoromethyl)benzyloxyimino)piperidin-1-yl)acetamide]
O=C(CCN1CCC(Cc2ccccc2)CC1)N1CCC(=NOCc2cccc(C(F)(F)F)c2)CC1 [Example 48, 1-[3-(4-Benzylpiperidin-1-yl)propionyl]piperidin-4-one O-(3-trifluoromethylbenzyl)oxime hydrochloride]
COc1ccc(S(=O)(=O)N2CCC(=NOC(c3ccc(F)cc3)c3ccc(F)cc3)CC2)cc1OC [Example 268, 1-(3,4-Dimethoxyphenylsulfonyl)piperidin-4-one O-bis(4-fluorophenyl)methyl oxime]
N#Cc1cccc(CON=C2CCN(S(=O)(=O)c3cccc(C#N)c3)CC2)c1 [Example 282, 3-(4-(3-Cyanobenzyloxyimino)piperidin-1-ylsulfonyl)benzonitrile]
N#Cc1cc(CON=C2CCN(C(=O)CCC(c3ccc(F)cc3)c3ccc(F)cc3)CC2)ccc1F [Example 181, 5-((1-(4,4-Bis(4-fluorophenyl)butanoyl)piperidin-4-ylideneaminooxy)methyl)-2-fluorobenzonitrile]
CCCCc1ccc(S(=O)(=O)N2CCC(=NOCc3cccc(OC)n3)CC2)cc1 [Example 76, 1-(4-Butylbenzenesulfonyl)piperidin-4-one O-(6-methoxypyridin-2-ylmethyl)oxime]
O=S(=O)(c1ccc(Cl)cc1Cl)N1CCC(=NOC(c2ccc(F)cc2)c2ccc(F)cc2)CC1 [Example 228, 1-(2,4-Dichlorophenylsulfonyl)piperidin-4-one O-bis(4-fluorophenyl)methyl oxime]
N#Cc1cccc(C(ON=C2CCN(S(=O)(=O)c3ccc(OC(F)(F)F)cc3)CC2)c2cccnc2)c1 (stereo not shown) [Example 270, 3-(Pyridin-3-yl(1-(4-(trifluoromethoxy)phenylsulfonyl)piperidin-4-ylideneaminooxy)methyl)benzonitrile]
N#Cc1cccc(CON=C2CCN(S(=O)(=O)c3ccc(OCCF)cc3)CC2)c1 [Example 281, 3-((1-(4-(2-Fluoroethoxy)phenylsulfonyl)piperidin-4-ylideneaminooxy)methyl)benzonitrile]
O=S(=O)(c1ccc(OC(F)(F)F)cc1)N1CCC(=NOCc2cc(Cl)ccn2)CC1 [Example 118, 1-(4-Trifluoromethoxybenzenesulfonyl)piperidin-4-one O-(4-chloropyridin-2-ylmethyl)oxime]
N#Cc1ccc(S(=O)(=O)N2CCC(=NOCc3cccc(C(F)(F)F)c3)CC2)cc1 [Example 53, 4-[4-(3-Trifluoromethylbenzyloxyimino)piperidine-1-sulfonyl]benzonitrile]
CCCCc1ccc(S(=O)(=O)N2CCC(=NOCc3ccnc(Cl)c3)CC2)cc1 [Example 69, 1-(4-Butylbenzenesulfonyl)piperidin-4-one O-(2-chloropyridin-4-ylmethyl)oxime]
CCCCc1ccc(S(=O)(=O)N2CCC(=NOCc3cccc(OC(F)(F)F)c3)CC2)cc1 [Example 79, 1-(4-Butylbenzenesulfonyl)piperidin-4-one O-(3-trifluoromethoxybenzyl)oxime]
O=S(=O)(c1ccccc1OC(F)(F)F)N1CCC(=NOC(c2ccc(F)cc2)c2ccc(F)cc2)CC1 [Example 289, 1-(2-(Trifluoromethoxy)phenylsulfonyl)piperidin-4-one O-bis(4-fluorophenyl)methyl oxime]
CC(C)Oc1ccc(S(=O)(=O)N2CCC(=NOCc3cccc(C(F)(F)F)c3)CC2)cc1 [Example 93, 1-(4-Isopropoxybenzenesulfonyl)piperidin-4-one O-(3-trifluoromethylbenzyl)oxime]
N#Cc1cccc(CON=C2CCN(S(=O)(=O)c3ccc(OC(F)F)cc3)CC2)c1 [Example 197, 3-((1-(4-(Difluoromethoxy)phenylsulfonyl)piperidin-4-ylideneaminooxy)methyl)benzonitrile]
O=S(=O)(c1cccc(C(F)(F)F)c1)N1CCC(=NOC2CCCCC2)CC1 [Example 309, 1-(3-(Trifluoromethyl)phenylsulfonyl)piperidin-4-one O-cyclohexyl oxime]
CCCCc1ccc(S(=O)(=O)N2CCC(=NOCc3cccc(Cl)c3)CC2)cc1 [Example 65, 1-(4-Butylbenzenesulfonyl)piperidin-4-one O-(3-chlorobenzyl)oxime]
